Data set [1] deals with Halomonas aquamarina. As to the kind of experiment: Antibacterial activity against Alcaligenes aquamarinus at 100 ug/disk after 24 hrs by paper disk diffusion assay. The class given is functional, organism-based. To be noted: Vreelandella aquamarina. (A growth-free zone around the sample is the usual read-out of agar diffusion tests.)
Data set [2] deals with Escherichia coli. Kind of data set: Antibacterial activity against Escherichia coli at 100 ug/disk after 24 hrs by paper disk diffusion assay. The data set is classed as functional, organism-based.
A short description of data set [3]: Toxicity against Artemia salina nauplii after 24 hrs. The settings on record: in vivo. The class given is organism-based.

Results on 2 compounds are retold here after ChEMBL document CHEMBL1159333, “Halogenated metabolites from the new Okinawan red alga Laurencia yonaguniensis” (J Nat Prod, 2002).

Active and inactive are the calls of the source. The rule behind the calls is not given here.

One may read the LC50 as the concentration lethal to half of the exposed cells or organisms. Higher therefore signals lower toxicity. `C#C/C=C\C[C@@H]1O[C@H](/C=C/C)C/C=C\C[C@@H]1Cl`: the outcome in data set [1] and in data set [2] was inactive. The same compound returned an LC50 at 24 h in data set [3] of 467 µM.

As to `CC1(C)[C@H](Br)C[C@H](O)[C@]1(C)[C@@]1(O)CC[C@]2(C)[C@@H](Br)CC[C@@](C)(O)[C@@]2(O)C1` [NEOIRIETETRAOL], the result in data set [1] and in data set [2] was Active. In addition, the LC50 at 24 h in data set [3] is 40.1 µM.
